Assay results: patent US20260217767A1, “NOVEL A4B7 THIOETHER PEPTIDE DIMER ANTAGONISTS” (Protagonist Therapeutics, Inc., priority 2014, published 2026)
pIC50: −log10 of the molar value. Where a SMILES comes first, the peptide text is derived from it.

Columns and labels:
[1] = Simulated Intestinal Fluid (SIF) Stability Assay; type: in vitro ADME; conditions: simulated gi fluid, porcine pancreatin
How it was run: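 Peptide at 22 μM final was incubated at 37° C in blank FaSSIF pH 6.5 with 1% porcine pancreatin. Timed samples were quenched in acetonitrile/methanol/formic acid with internal standard and analysed by LC-MS/MS. Half-lives came from first-order exponential fits of percent remaining.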

[2] = Dithiothreitol (DTT) Redox Stability Assay; type: physicochemical; conditions: 0.5 mM DTT, room temperature; control peptide monomers, Table 8
Procedure: Studies were carried out under redox conditions to evaluate intestinal stability of the peptide molecules of the instant invention.
Dithiothreitol (DTT) Redox Stability Assay
The DTT stability assay was prepared by adding 5 μl of a 10 mM peptide stock solution in DMSO to 1 ml of 100 mM Tris-Cl, pH 7.5 (final peptide concentration is 50 μM). At time 0 min, 5 μl of a freshly thawed 100 mM DTT solution was added such that the final DTT concentration is 0.5 mM. The reactions were incubated at room temperature. At different time points up to 120 minutes, 50 μl aliquots were removed and the reaction was quenched by adding 10 ul of 5M acetic acid. To measure disappearance of the parent peptide, the quenched samples (30 μl) were analyzed by reverse phase HPLC and UV absorbance at 220 nm. Half-lives were calculated by fitting to a first-order exponential decay equation using Excel.

[3] = test system: CD4+/CD45RO+ memory T cells; test: PBMC Memory T Cell Adhesion Assay; type: cell-based, human; conditions: thioether peptide dimers, Table 7
Procedure: PBMC Memory T Cell Adhesion Assay
Fresh CD4+/CD45RO+ memory T cells were isolated from human peripheral blood mononuclear cell (PBMC) donors by Aragen Bioscience Inc. (Morgan Hill, CA). The assay plate was prepared using IgG Fc capture antibody (donkey anti human) immobilized at 500 ng/well in 50 mM sodium bicarbonate buffer, pH 9.5, ON, 4 C onto a Greiner Fluotrac plate (100 ul per well). The plate was rinsed two time with Blocking Buffer (25 mM Tris HCl, pH7.5, 150 mM NaCl, 1.5% BSA, 0.05% Tween), and blocked with Blocking Buffer for 2 hours at 37 C or 5 hours at RT using 200 ul per well. The Blocking Buffer was removed and either MAdCAM-1 or VCAM-1 at 400 ng/well in Blocking Buffer was added and the plate incubated overnight at 4 C (100 ul per well). The plate was washed two times with Blocking Buffer, and rinsed once with 200 ul Binding Media (DMEM phenol red free, 10 mM HEPES, 1×Na pyruvate, 1× Glutamine, and supplemented with 1 mM MnC12 prior to use). To prepare cells, approximately 25 million CD4+/CD45RO+ memory T cells were counted by trypan blue exclusion using a haemocytometer to determine viability and cell count. The cells were transferred to a 50 ml conical tube, and centrifuged at 1200 rpm for 10 minute. The media was aspirated and the cell pellet resuspended in 15 ml Binding Media. The cells were centrifuged again and resuspended in the appropriate amount of Binding Media to be used for assays (50 ul of cells per well at 2× the final density). To each well, and equal volume (50 ul) of test compound was added and the plate was incubated for 1.5 hours at 37 C, 5% CO2. Each well was rinsed 3× with 150 ul per well of Binding Media. […] The plate was incubated at 37 C, 5% CO2, for 45 minutes. The plate was protected from light by using black adhesive seals. Fluorescence intensity was measured using a Molecular Devices Gemini EM Fluorescent Plate Reader (Ex 485/Em530, Bottom Read, Reading Sensitivity=20). IC50 curves are generated using Graph Pad Prism and the curves analyzed using analyzed using a non-linear regression (four parameters) algorithm. The log (concentration) versus RFU (Ex485/Em530) was plotted to determine IC50 values.

[4] = Simulated Gastric Fluid (SGF) Stability Assay; type: in vitro ADME; conditions: simulated gi fluid; porcine pepsin, pH 2, 37° C.; dimers, Table 7
Procedure: Simulated Gastric Fluid (SGF) Stability Assays
Studies were carried out in simulated gastric fluid (SGF) to evaluate intestinal stability of the peptide molecules of the instant invention. SGF was prepared by adding 20 mg NaCl, 32 mg porcine pepsin (MP Biochemicals, catalog 02102599), and 70 μl HCl to 10 ml water (final pH=2). Aliquots of SGF (0.5 ml each) were pre-warmed at 37° C. To start the reaction, 1 μl of peptide stock solution (10 mM in DMSO) was added to 0.5 ml SGF and thoroughly mixed such that the final peptide concentration was 20 μM. The reactions were incubated at 37° C. with gentle shaking. At each time point (0, 15, 30, 60 min) 50 μl aliquots were removed and added to 200 μl acetonitrile containing 0.1% formic acid to quench the reaction. Samples are stored at 4° C. until the end of the experiment and centrifuged at 10,000 rpm for 5 minutes. Aliquots of the supernatant were removed, diluted 1:1 into distilled water containing internal standard, and analyzed by LCMS/MS. Percent remaining at each timepoint was calculated based on the peak area response ratio of test to compound to internal standard. Time 0 was set to 100%, and all later timepoints were calculated relative to time 0. Half-lives were calculated by fitting to a first-order exponential decay equation using GraphPad.

RPMI 8866 cells = biological target: T1, RPMI 8866 cells (Homo sapiens, UniProt P13612+P26010); test: α4β7-MAdCAM Cell Adhesion Assay; type: cell-based; conditions: thioether peptide dimers, Table 7; read-out: Cell-Adhesion A4B7
T1 sequence (P13612 34-1032): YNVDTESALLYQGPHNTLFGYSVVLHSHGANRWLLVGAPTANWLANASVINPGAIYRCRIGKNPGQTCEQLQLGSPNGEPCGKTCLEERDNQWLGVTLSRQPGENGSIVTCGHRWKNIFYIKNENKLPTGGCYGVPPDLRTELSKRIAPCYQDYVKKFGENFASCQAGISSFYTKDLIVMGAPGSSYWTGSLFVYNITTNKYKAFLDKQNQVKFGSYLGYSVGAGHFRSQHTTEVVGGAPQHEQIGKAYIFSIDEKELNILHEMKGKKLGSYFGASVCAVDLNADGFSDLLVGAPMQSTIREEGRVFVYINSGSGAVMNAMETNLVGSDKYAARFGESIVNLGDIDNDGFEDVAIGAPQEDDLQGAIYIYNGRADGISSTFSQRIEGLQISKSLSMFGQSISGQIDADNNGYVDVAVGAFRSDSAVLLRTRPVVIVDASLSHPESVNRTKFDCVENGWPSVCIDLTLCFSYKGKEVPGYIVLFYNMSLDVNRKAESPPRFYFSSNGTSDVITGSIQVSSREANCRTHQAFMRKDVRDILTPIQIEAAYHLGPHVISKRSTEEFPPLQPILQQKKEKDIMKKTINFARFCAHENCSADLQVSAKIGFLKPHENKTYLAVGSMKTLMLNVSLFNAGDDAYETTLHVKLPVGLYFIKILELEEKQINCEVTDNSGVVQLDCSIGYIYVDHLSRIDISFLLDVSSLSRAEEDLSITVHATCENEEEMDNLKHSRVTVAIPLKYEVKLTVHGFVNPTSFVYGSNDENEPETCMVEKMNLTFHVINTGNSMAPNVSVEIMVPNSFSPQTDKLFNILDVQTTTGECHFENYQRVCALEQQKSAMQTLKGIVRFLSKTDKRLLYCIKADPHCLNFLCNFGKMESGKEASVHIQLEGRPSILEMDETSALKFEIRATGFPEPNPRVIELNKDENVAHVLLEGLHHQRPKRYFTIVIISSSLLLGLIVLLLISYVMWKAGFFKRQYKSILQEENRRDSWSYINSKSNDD
T1 sequence (P26010 20-798): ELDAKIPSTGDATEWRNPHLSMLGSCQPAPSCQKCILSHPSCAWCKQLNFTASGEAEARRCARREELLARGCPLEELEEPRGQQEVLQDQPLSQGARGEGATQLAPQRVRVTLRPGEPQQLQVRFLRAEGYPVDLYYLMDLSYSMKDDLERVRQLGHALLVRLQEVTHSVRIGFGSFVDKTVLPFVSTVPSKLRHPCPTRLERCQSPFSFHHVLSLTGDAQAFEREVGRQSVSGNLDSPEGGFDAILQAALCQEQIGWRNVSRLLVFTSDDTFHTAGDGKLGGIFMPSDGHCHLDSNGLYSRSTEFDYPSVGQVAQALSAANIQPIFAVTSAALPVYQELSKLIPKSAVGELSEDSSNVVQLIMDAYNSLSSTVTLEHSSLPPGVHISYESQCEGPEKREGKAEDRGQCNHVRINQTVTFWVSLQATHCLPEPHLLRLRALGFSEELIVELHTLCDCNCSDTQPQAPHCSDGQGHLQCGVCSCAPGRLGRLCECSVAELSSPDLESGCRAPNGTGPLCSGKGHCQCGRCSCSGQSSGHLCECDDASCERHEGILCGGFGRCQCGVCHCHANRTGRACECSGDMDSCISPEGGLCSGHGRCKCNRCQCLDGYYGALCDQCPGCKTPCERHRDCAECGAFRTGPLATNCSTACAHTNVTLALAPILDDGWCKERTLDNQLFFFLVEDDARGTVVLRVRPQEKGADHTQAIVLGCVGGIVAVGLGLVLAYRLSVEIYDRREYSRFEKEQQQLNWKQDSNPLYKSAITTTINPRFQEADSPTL
How it was run: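 RPMI 8866 cells (200,000/well) in DMEM with 1 mM MnCl2 and 0.1% BSA were allowed to adhere 30-45 min at 37° C to plates coated with rh MAdCAM-1/Fc (200 ng/well) in presence of serially diluted peptide. After washing, bound cells quantified by MTT, absorbance 570 nm, cell-free background subtracted.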

[5] = control peptide monomers, Table 8

half-life [1, 5]	Redox stability (DTT) [2]	SMILES	half-life ([1]; 37° C., dimers, Table 7)	pIC50 [3]	half-life [4]	pIC50 (RPMI 8866 cells)
< 0.0167 h	~3 min	CC(=O)N[C@H]1CSSC[C@@H](C(N)=O)NC(=O)[C@H](CC(C)C)NC(=O)[C@H]([C@@H](C)O)NC(=O)[C@H](CC(=O)O)NC(=O)[C@H](CO)NC(=O)[C@H](CCCNC(=N)N)NC1=O [compound 386] (HELM PEPTIDE1{[ac].C.R.S.D.T.L.C.[am]}$PEPTIDE1,PEPTIDE1,2:R3-8:R3$$$V2.0; bridges inferred)	–	–	–	–
–	–	CC(C)C[C@@H]1NC(=O)[C@H]([C@@H](C)O)NC(=O)[C@H](CC(=O)O)NC(=O)[C@H](CO)NC(=O)[C@H](CCCNC(=N)N)N(C)C(=O)c2ccccc2CSC(C)(C)[C@@H](C(=O)N[C@@H](Cc2ccccc2)C(=O)N[C@H](CCC(=O)O)C(=O)N[C@H](CCCCN)C(N)=O)NC1=O [compound 155] (HELM PEPTIDE1{[meR].S.D.T.L.[Pen].F.[dE].[dK].[am]}|CHEM1{[O=C(c1ccccc1C[*:2])[*:1]]}$PEPTIDE1,CHEM1,1:R1-1:R1|PEPTIDE1,CHEM1,6:R3-1:R2$$$V2.0)	> 3 h	7.00 to 7.60	> 3 h	–
< 0.0167 h	~3 min	CC(=O)N[C@H]1CSSC[C@@H](C(=O)NCC(=O)N[C@@H](CCC(=O)O)C(N)=O)NC(=O)[C@H](CC(C)C)NC(=O)[C@H]([C@@H](C)O)NC(=O)[C@H](CC(=O)O)NC(=O)[C@H](CO)NC(=O)[C@H](CCCNC(=N)N)NC1=O [compound 385] (HELM PEPTIDE1{[ac].C.R.S.D.T.L.C.G.E.[am]}$PEPTIDE1,PEPTIDE1,2:R3-8:R3$$$V2.0; bridges inferred)	–	–	–	–
–	–	CC(C)C[C@@H]1NC(=O)[C@H]([C@@H](C)O)NC(=O)[C@H](CC(=O)O)NC(=O)[C@H](CO)NC(=O)[C@H](CCCNC(=N)N)N(C)C(=O)c2ccccc2CSC(C)(C)[C@@H](C(=O)N[C@@H](Cc2ccc(C(C)(C)C)cc2)C(=O)N[C@@H](CCC(=O)O)CC(=O)N[C@H](CCCCN)C(N)=O)NC1=O [compound 222]	–	> 7.60	–	> 7.60
